Numbers after ± are expanded uncertainties.
Test: xn = mol fraction of the nth substance listed
Settings: 101 kPa, Liquid

CCO [ethanol] + O
mass density (268.1 K, x2 = 0.1): 824.9 ± 3.8 kg/m3 | viscosity (268.1 K, x2 = 0.1): 2.307 ± 0.11 mPa·s | mass density (268.1 K, x2 = 0.2): 838.2 ± 3.9 kg/m3 | viscosity (268.1 K, x2 = 0.2): 2.805 ± 0.13 mPa·s | mass density (268.1 K, x2 = 0.3): 852.2 ± 4 kg/m3 | viscosity (268.1 K, x2 = 0.3): 3.345 ± 0.15 mPa·s | mass density (268.1 K, x2 = 0.4): 867.7 ± 4.1 kg/m3 | viscosity (268.1 K, x2 = 0.4): 3.991 ± 0.18 mPa·s | mass density (268.1 K, x2 = 0.5): 886.6 ± 4.2 kg/m3 | viscosity (268.1 K, x2 = 0.5): 4.829 ± 0.22 mPa·s | mass density (268.1 K, x2 = 0.6): 908.1 ± 4.3 kg/m3 | viscosity (268.1 K, x2 = 0.6): 5.931 ± 0.26 mPa·s | mass density (268.1 K, x2 = 0.7): 931.6 ± 4.4 kg/m3 | viscosity (268.1 K, x2 = 0.7): 7.172 ± 0.3 mPa·s | mass density (268.1 K, x2 = 0.8): 951 ± 4.5 kg/m3 | viscosity (268.1 K, x2 = 0.8): 7.549 ± 0.32 mPa·s | mass density (268.1 K, x2 = 0.9): 977.3 ± 4.6 kg/m3 | viscosity (268.1 K, x2 = 0.9): 6.025 ± 0.26 mPa·s | mass density (273.1 K, x2 = 0.1): 820.3 ± 3.6 kg/m3 | viscosity (273.1 K, x2 = 0.1): 2.059 ± 0.096 mPa·s | mass density (273.1 K, x2 = 0.2): 833.7 ± 3.7 kg/m3 | viscosity (273.1 K, x2 = 0.2): 2.491 ± 0.12 mPa·s | mass density (273.1 K, x2 = 0.3): 847.7 ± 3.8 kg/m3 | viscosity (273.1 K, x2 = 0.3): 2.938 ± 0.14 mPa·s | mass density (273.1 K, x2 = 0.4): 863.4 ± 3.9 kg/m3 | viscosity (273.1 K, x2 = 0.4): 3.451 ± 0.16 mPa·s | mass density (273.1 K, x2 = 0.5): 882.1 ± 3.9 kg/m3 | viscosity (273.1 K, x2 = 0.5): 4.123 ± 0.19 mPa·s | mass density (273.1 K, x2 = 0.6): 903.5 ± 4.1 kg/m3 | viscosity (273.1 K, x2 = 0.6): 4.978 ± 0.23 mPa·s | mass density (273.1 K, x2 = 0.7): 927.1 ± 4.2 kg/m3 | viscosity (273.1 K, x2 = 0.7): 5.947 ± 0.26 mPa·s | mass density (273.1 K, x2 = 0.8): 948 ± 4.3 kg/m3 | viscosity (273.1 K, x2 = 0.8): 6.169 ± 0.27 mPa·s | mass density (273.1 K, x2 = 0.9): 975.6 ± 4.4 kg/m3 | viscosity (273.1 K, x2 = 0.9): 4.997 ± 0.23 mPa·s | mass density (278.1 K, x2 = 0.1): 815.9 ± 3.4 kg/m3 | viscosity (278.1 K, x2 = 0.1): 1.837 ± 0.087 mPa·s | mass density (278.1 K, x2 = 0.2): 829 ± 3.5 kg/m3 | viscosity (278.1 K, x2 = 0.2): 2.21 ± 0.1 mPa·s | mass density (278.1 K, x2 = 0.3): 842.9 ± 3.6 kg/m3 | viscosity (278.1 K, x2 = 0.3): 2.579 ± 0.12 mPa·s | mass density (278.1 K, x2 = 0.4): 858.8 ± 3.6 kg/m3 | viscosity (278.1 K, x2 = 0.4): 2.98 ± 0.14 mPa·s | mass density (278.1 K, x2 = 0.5): 877.7 ± 3.7 kg/m3 | viscosity (278.1 K, x2 = 0.5): 3.518 ± 0.16 mPa·s | mass density (278.1 K, x2 = 0.6): 899.3 ± 3.8 kg/m3 | viscosity (278.1 K, x2 = 0.6): 4.176 ± 0.19 mPa·s | mass density (278.1 K, x2 = 0.7): 922.7 ± 4 kg/m3 | viscosity (278.1 K, x2 = 0.7): 4.933 ± 0.22 mPa·s | mass density (278.1 K, x2 = 0.8): 945 ± 4.1 kg/m3 | viscosity (278.1 K, x2 = 0.8): 5.037 ± 0.23 mPa·s | mass density (278.1 K, x2 = 0.9): 973.2 ± 4.2 kg/m3 | viscosity (278.1 K, x2 = 0.9): 4.089 ± 0.19 mPa·s | mass density (283.1 K, x2 = 0.1): 811.4 ± 3.2 kg/m3 | viscosity (283.1 K, x2 = 0.1): 1.639 ± 0.078 mPa·s | mass density (283.1 K, x2 = 0.2): 824.7 ± 3.3 kg/m3 | viscosity (283.1 K, x2 = 0.2): 1.959 ± 0.092 mPa·s | mass density (283.1 K, x2 = 0.3): 838.5 ± 3.4 kg/m3 | viscosity (283.1 K, x2 = 0.3): 2.26 ± 0.11 mPa·s | mass density (283.1 K, x2 = 0.4): 854.1 ± 3.4 kg/m3 | viscosity (283.1 K, x2 = 0.4): 2.57 ± 0.12 mPa·s | mass density (283.1 K, x2 = 0.5): 872.8 ± 3.5 kg/m3 | viscosity (283.1 K, x2 = 0.5): 2.995 ± 0.14 mPa·s | mass density (283.1 K, x2 = 0.6): 894.6 ± 3.6 kg/m3 | viscosity (283.1 K, x2 = 0.6): 3.499 ± 0.16 mPa·s | mass density (283.1 K, x2 = 0.7): 918.7 ± 3.8 kg/m3 | viscosity (283.1 K, x2 = 0.7): 4.093 ± 0.19 mPa·s | mass density (283.1 K, x2 = 0.8): 941.4 ± 3.9 kg/m3 | viscosity (283.1 K, x2 = 0.8): 4.102 ± 0.19 mPa·s | mass density (283.1 K, x2 = 0.9): 970.8 ± 4 kg/m3 | viscosity (283.1 K, x2 = 0.9): 3.34 ± 0.15 mPa·s | mass density (288.15 K, x2 = 0.1): 806.9 ± 3 kg/m3 | viscosity (288.15 K, x2 = 0.1): 1.51 ± 0.072 mPa·s | mass density (288.15 K, x2 = 0.2): 820.1 ± 3.1 kg/m3 | viscosity (288.15 K, x2 = 0.2): 1.721 ± 0.081 mPa·s | mass density (288.15 K, x2 = 0.3): 833.9 ± 3.1 kg/m3 | viscosity (288.15 K, x2 = 0.3): 1.98 ± 0.093 mPa·s | mass density (288.15 K, x2 = 0.4): 849.5 ± 3.2 kg/m3 | viscosity (288.15 K, x2 = 0.4): 2.212 ± 0.1 mPa·s | mass density (288.15 K, x2 = 0.5): 868.5 ± 3.3 kg/m3 | viscosity (288.15 K, x2 = 0.5): 2.539 ± 0.12 mPa·s | mass density (288.15 K, x2 = 0.6): 889.6 ± 3.4 kg/m3 | viscosity (288.15 K, x2 = 0.6): 2.922 ± 0.13 mPa·s | mass density (288.15 K, x2 = 0.7): 914.5 ± 3.6 kg/m3 | viscosity (288.15 K, x2 = 0.7): 3.372 ± 0.15 mPa·s | mass density (288.15 K, x2 = 0.8): 938 ± 3.7 kg/m3 | viscosity (288.15 K, x2 = 0.8): 3.433 ± 0.16 mPa·s | mass density (288.15 K, x2 = 0.9): 967.3 ± 3.8 kg/m3 | viscosity (288.15 K, x2 = 0.9): 2.706 ± 0.12 mPa·s | mass density (293.15 K, x2 = 0.1): 802.1 ± 2.8 kg/m3 | viscosity (293.15 K, x2 = 0.1): 1.355 ± 0.065 mPa·s | mass density (293.15 K, x2 = 0.2): 815.6 ± 2.9 kg/m3 | viscosity (293.15 K, x2 = 0.2): 1.515 ± 0.072 mPa·s | mass density (293.15 K, x2 = 0.3): 829.4 ± 2.9 kg/m3 | viscosity (293.15 K, x2 = 0.3): 1.715 ± 0.081 mPa·s | mass density (293.15 K, x2 = 0.4): 845 ± 3 kg/m3 | viscosity (293.15 K, x2 = 0.4): 1.901 ± 0.089 mPa·s | mass density (293.15 K, x2 = 0.5): 863.8 ± 3.1 kg/m3 | viscosity (293.15 K, x2 = 0.5): 2.153 ± 0.1 mPa·s | mass density (293.15 K, x2 = 0.6): 885.1 ± 3.2 kg/m3 | viscosity (293.15 K, x2 = 0.6): 2.463 ± 0.11 mPa·s | mass density (293.15 K, x2 = 0.7): 909.9 ± 3.4 kg/m3 | viscosity (293.15 K, x2 = 0.7): 2.842 ± 0.13 mPa·s | mass density (293.15 K, x2 = 0.8): 934.6 ± 3.5 kg/m3 | viscosity (293.15 K, x2 = 0.8): 2.841 ± 0.13 mPa·s | mass density (293.15 K, x2 = 0.9): 963.7 ± 3.6 kg/m3 | viscosity (293.15 K, x2 = 0.9): 2.268 ± 0.11 mPa·s

Reference: the NIST ThermoML archive (doi:10.1021/je800150h)
